Results reported in US20180258100A1, “RAPAMYCIN ANALOGS SHOWING IMPROVED mTORC1 SPECIFICITY” (priority 2015, published 2018).

Experiments:
[1] = system: autophagy markers (pULK/ULK, Beclin-1, Vps34, LC3B, p62); assay: Autophagy markers in brain of Tg4510 mice; format: in vivo; details: 12 mg/kg i.p., 4 weeks
Procedure: (§1) Female Tg4510 and control mice were purchased from the Jackson Laboratory (Bar Harbor, Me.). All mice were examined and weighed prior to initiation of the study to ensure adequate health and suitability and were caged under controlled temperature (20-23° C.) and relative humidity (maintained around 50%). All tests were performed during the animal's light cycle phase. Mice received every-other-day injections of either vehicle or compound 390 (12 mg/kg) in the following groups: (a) wild-type (WT) mice receiving vehicle (n=16); (b) Tg4510 mice receiving vehicle (n=15) and (c) Tg4510 mice receiving DL390 (12 mg/kg; n=15)
A number of autophagy markers were measured both in the cortex and hippocampus tissue to assess the status of the autophagic clearance mechanism across the three study groups. Specifically, pULK/ULK, Beclin-1, Vps34, LC3B and p62 were measured using the appropriate antibodies (Cell Signaling Technology).

[2] = biological target: T1, mTORC1 (Mus musculus, UniProt P26883+Q9JLN9); assay: Immunoblot of liver, muscle and brain after four weeks, mTORC1; format: in vivo, male C57BL/6J mice; details: rapamycin 8 mg/kg, compound 390 12 mg/kg i.p. every other day
Procedure: Fortyfive C57BL/6J male mice, housed three per cage, were weighed and their body composition was measured with an EchoMRI 3-in-1 system. […] Mice received every-other-day injections of either vehicle, rapamycin (8 mg/kg), or compound 390 (12 mg/kg). A glucose tolerance test was performed after 2 weeks (morning after the 8th injection). A pyruvate tolerance test was performed after 3 weeks. Glucose stimulated insulin secretion assay was performed after 4 weeks and additional blood was collected for whole blood analysis. Body composition was measured on day −2 and day 31.
For western blotting, antibodies to phospho-Akt S473 (4060), Akt (4691), phospho-S6 ribosomal protein (2215), S6 ribosomal protein (2217), phospho-4E-BP1 S65 (9451) and 4E-BP1 (9452) were from Cell Signaling Technology.
Cells and tissue samples were lysed in cold RIPA buffer supplemented with phosphatase inhibitor and protease inhibitor cocktail tablets (PI88669, Fisher Scientific). Tissues were lysed in RIPA buffer using a FastPrep 24 (M.P. Biomedicals) with bead-beating tubes and ceramic beads (Mo-Bio Laboratories), and then centrifuged. Protein concentration was determined by Bradford assay (Pierce Biotechnology). Protein was separated by sodium dodecylsulphate-polyacrylamide gel electrophoresis (SDS-PAGE) on 8, 10, or 16% resolving gels (Life Technologies).

[3] = Fat mass by EchoMRI body composition after four weeks; format: in vivo, male C57BL/6J mice; details: 4 weeks of every other day administration; rapamycin 8 mg/kg, compound 390 12 mg/kg; versus vehicle
Procedure: Fortyfive C57BL/6J male mice, housed three per cage, were weighed and their body composition was measured with an EchoMRI 3-in-1 system. Cages were sorted into three groups—vehicle, rapamycin, and compound 390—such that the average weight was similar for all three groups. Mice received every-other-day injections of either vehicle, rapamycin (8 mg/kg), or compound 390 (12 mg/kg). A glucose tolerance test was performed after 2 weeks (morning after the 8th injection). A pyruvate tolerance test was performed after 3 weeks. Glucose stimulated insulin secretion assay was performed after 4 weeks and additional blood was collected for whole blood analysis. Body composition was measured on day −2 and day 31.

[4] = Insulin challenge response; format: in vivo, female C57BL/6J mice; details: 0.75 IU/kg insulin after 2 weeks; rapamycin 8 mg/kg, compound 390 12 mg/kg i.p. every other day
Procedure: FIG. 10. Response to insulin challenge following administration of 0.75 IU/kg insulin at t=2 weeks following the initiation of the intraperitoneal administrations of 8 mg/kg rapamycin, 12 mg/kg compound 390 or vehicle control every other day in female mice (N=5).
(§2) 10-week old female C57BL/6J mice were given intraperitoneal injections of 8 mg/kg rapamycin (LC laboratories), 12 mg/kg compound 390 or vehicle every other day for three weeks (N=5 mice/group), such as to mimic chronic exposure conditions. 24 hours after the last injection, tissues were dissected from the mice and immediately frozen in liquid nitrogen. The tissues were homogenized using the Omni TH homogenizer (Omni International) on ice in RIPA buffer and then centrifuged at 13,000 rpm for 15 minutes at 4° C. The supernatants were collected and protein concentration was determined using the DC protein assay (Biorad).

[5] = system: Tg4510 mice; assay: Morris water maze test in Tg4510 mice; format: in vivo; details: 12 mg/kg, 4-weeks treatment, versus vehicle-treated Tg4510 mice
Procedure: as §1
The test was performed in a circular tank, measuring 48″ in diameter. Extra-maze cues were mounted around the water tank. On 5 consecutive days of the week, test sessions were conducted with the platform submerged approximately 1.3 cm below the surface of the water. On each day, there were 4 trials, 60 s long. Approximately 15 min elapsed between each trial. On the fifth day of acquisition training, the last trial (out of 4) consisted of 60 s without the platform.

[6] = biological target: T1, mTORC1; assay: Western blot of mouse tissues after 3 weeks i.p. dosing, mTORC1 (P-S6/total S6); format: in vivo, female C57BL/6J mice; details: 12 mg/kg i.p. every other day for 3 weeks
Procedure: as §2
The mTORC1/2 inhibition was determined by Western blots. Equal amounts of protein were resolved by SDS-PAGE and transferred to nitrocellulose membrane using the Invitrogen Nu-Page system. The membranes were blocked for 1 h in 5% milk and incubated overnight in the appropriate antibodies. The following day, blots were washed 3 times in TBST, incubated for 2 h with secondary antibodies (donkey anti rabbit hrp conjugated), and finally washed an additional 3 times in TBST. ECL Prime (Amersham) was used to detect the proteins of interest and ImageJ software was used to quantify the band intensity of the Western blots.

CO[C@H]1CC2CC[C@@H](C)[C@@](O)(O2)C(=O)C(=O)N2CCCC[C@H]2C(=O)O[C@H]([C@@H](C)CC2CCC(O)CC2)CC(=O)[C@@H](C)/C=C(\C)[C@H](O)[C@H](O)C(=O)[C@@H](C)C[C@H](C)/C=C/C=C/C=C/1C (some centres unmarked) [compound 390, 27-O-Desmethyl-39-Desmethoxy Rapamycin]
Beclin-1 activity (initiation phase of autophagy) [1]: nearly full restoration of Beclin-1 activity
ULK1 phosphorylation (induction phase of autophagy) [1]: reduction of ULK1 phosphorylation
accumulated LC3B-II levels (maturation and lysosomal clearance) [1]: substantial reduction
accumulated p62 levels (maturation and lysosomal clearance) [1]: substantial reduction
autophagy in the brain, all stages [1]: substantial and statistically significant upregulation
mTORC1 inhibition in liver, muscle and brain [2]: significantly inhibits mTORC1 at approximately the same level as rapamycin
fat mass (adiposity) [3]: does not induce any increase of adiposity
glucose response after insulin challenge (insulin resistance) [4]: indistinguishable from the vehicle-receiving control animals
behavioral performance, total distance travelled during acquisition days [5]: strong trends of behavioral improvement
mTORC1 inhibition in tissues ([6]; soleus muscle and liver): only partially inhibits mTORC1
mTORC1 inhibition in tissues ([6]; visceral fat, gastrocnemius muscle, pancreas, lung and kidney): strong inhibition of mTORC1
